Reference: patent US20260283950A1, “TRI-AZOLE ANTIFUNGAL COMPOSITIONS” (priority 2023, published 2026)

What was measured:
[1] = Preparation of solutions in semifluorinated alkanes, appearance of the composition; type: physicochemical
Experimental: 14 mg efinaconazole (purity >99%) is weighed in a 5-ml glass vial; 2 ml F6H8 (Novaliq, purity >99%) is added into the vial by using a pipette, closed with aluminium crimp cap and shaken for 4 hours at 280 mpm, at RT.
20 mg efinaconazole (purity >99%) is weighed in a 5-ml glass vial; the needed volume of the cosolvent is added into the vial by using a pipette; the vial is shaken by hand gentle; the needed volume of F6H8 (Novaliq, purity >99%) is added by using a pipette, closed with aluminium crimp cap and shaken for 4 hours at 280 mpm, at RT.
Following the procedure described in the Examples 1 and 2, the following compositions were prepared (Table 1):
20 mg terbinafine (free base; purity >98%) is weighed in a 5-ml glass vial; 2 ml F6H8 (Novaliq, purity >99%) is added into the vial by using a pipette, closed with aluminium crimp cap and shaken overnight at 280 mpm, at RT.
Following the aforementioned procedure the following compositions were prepared (Table 6): […]

T. interdigitale = experiment: In vitro nail penetration/inhibition model (Bovine Hoof Sheets soaked in product, zone of inhibition); type: cell-based; conditions: BHS soaked 24 hours in product, incubation at 28° C. 5 days
Experimental: Three test products containing 0.1% to 10% efinaconazole were tested in vitro for their capabilities to inhibit growth of a representative dermatophyte (T. interdigitale) that is known to cause onychomycosis and tinea pedis in humans: • (a) 0.1% efinaconazole, dissolved in a mixture of F6H8 and 2-propanol (10:1 v/v %), non-aqueous (8-9), • (b) 1.0% efinaconazole, dissolved in a mixture of F6H8 and 2-propanol (9:1 v/v %), non-aqueous (4-7), • (c) 10% efinaconazole, aqueous commercial product (“Jublia”; Bausch Health, Bridgewater, USA) (10-11). As reference products, DMSO was utilized as negative control (1), terbinafine (100 μg/ml in DMSO) as positive control (2) and F6H8 as vehicle control (3). […] Bovine Hoof Sheets (BHS; 400 μm thickness, 16 mm diameter), an established in vitro surrogate for human nails in transungual permeation studies, were soaked in excess in the three test products and the three reference products for 24 hours. Afterwards the BHS were taken from the soaking baths and remaining residues of the test and reference products were thoroughly removed. Then, BHS were transferred and placed onto freshly plated T. interdigitale culture plates. […] Experimental details and results are depicted in Table 2 below: […]

C=C1CCN([C@H](C)[C@](O)(Cn2cncn2)c2ccc(F)cc2F)CC1 [Efinaconazole, efinaconazole]
clear solution: Appearance ([1]; 7 mg/mL efinaconazole in F6H8, no cosolvent) | Appearance ([1]; 10 mg/mL efinaconazole, F6H8 (90 vol %), 2-propanol (10 vol %)) | Appearance ([1]; 15 mg/mL efinaconazole, F4H5 (90 vol %), 2-propanol (10 vol %)) | Appearance ([1]; 15 mg/mL efinaconazole, F4H10 (90 vol %), 2-propanol (10 vol %)) | Appearance ([1]; 15 mg/mL efinaconazole, F6H8 (85 vol %), 2-propanol (10 vol %), 1-Methyl-2-pyrrolidon (5 vol %)) | Appearance ([1]; 15 mg/mL efinaconazole, F6H8 (85 vol %), 2-propanol (10 vol %), Ethyl acetate (5 vol %)) | Appearance ([1]; 15 mg/mL efinaconazole, F6H8 (85 vol %), 2-propanol (10 vol %), N,N-Dimethyl acetamide (5 vol %)) | Appearance ([1]; 15 mg/mL efinaconazole, F6H8 (85 vol %), 2-propanol (10 vol %), N,N-Dimethyl formamide (5 vol %)) | Appearance ([1]; 25 mg/mL efinaconazole, F6H8 (75 vol %), 2-propanol (25 vol %))

CN(C/C=C/C#CC(C)(C)C)Cc1cccc2ccccc12 [terbinafine]
clear solution: Appearance ([1]; 1 mg/mL terbinafine in F4H5, no cosolvent) | Appearance ([1]; 1 mg/mL terbinafine in F6H8, no cosolvent) | Appearance ([1]; 5 mg/mL terbinafine in F4H5, no cosolvent) | Appearance ([1]; 5 mg/mL terbinafine in F6H8, no cosolvent) | Appearance ([1]; 10 mg/mL terbinafine in F6H8, no cosolvent) | Appearance ([1]; 10 mg/mL terbinafine, F4H5, ethanol (10 vol %)) | Appearance ([1]; 10 mg/ml terbinafine, F6H8 (90 vol %), 2-propanol (10 vol %)) | Appearance ([1]; 15 mg/mL terbinafine in F6H8, no cosolvent) | Appearance ([1]; 20 mg/mL terbinafine, F6H8 (90 vol %), ethanol (10 vol %)) | Appearance ([1]; 20 mg/ml terbinafine, F6H8 (90 vol %), 2-propanol (10 vol %))
nearly complete inhibition: Results (inhibition zone, in words) (T. interdigitale)
56 to 58 mm: zone of inhibition at 100 µg/mL (T. interdigitale; Trichophyton interdigitale, 120 h, read-out: zones of inhibition)
